From EP1090020B1, “2-(PURIN-9-YL)-TETRAHYDROFURAN-3,4-DIOL DERIVATIVES” (GLAXO GROUP LIMITED, priority 1998, dated 1999)

How the values were obtained:
Type in all cases: cell-based
[1] = molecular target: T1, human adenosine receptor (adenosine 3) (Homo sapiens, UniProt P0DMS8); test: Agonist activity against adenosine 3 receptor subtype (CHO cells, cAMP response element/SPAP reporter); settings: transfected CHO cells; effect on forskolin-enhanced cAMP reflected by SPAP; ratio to NECA
T1 sequence (P0DMS8 1-318): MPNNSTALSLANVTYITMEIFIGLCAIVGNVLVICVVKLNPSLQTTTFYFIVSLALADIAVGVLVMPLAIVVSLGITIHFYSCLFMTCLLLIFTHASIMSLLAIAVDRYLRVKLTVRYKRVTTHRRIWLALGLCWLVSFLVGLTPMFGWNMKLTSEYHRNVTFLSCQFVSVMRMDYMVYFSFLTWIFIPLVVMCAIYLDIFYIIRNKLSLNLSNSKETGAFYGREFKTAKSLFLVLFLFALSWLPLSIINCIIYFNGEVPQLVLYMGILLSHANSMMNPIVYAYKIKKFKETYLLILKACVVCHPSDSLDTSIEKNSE
Description: (§1) Compounds of the invention were tested for in vitro and in vivo biological activity in accordance with the following screens: • (1) Agonist activity against adenosine 2a, adenosine 1 and adenosine 3 receptor subtypes. Agonist selectivity of compounds against other human adenosine receptors was determined using Chinese hamster ovary (CHO) cells transfected with the gene for the relevant human adenosine receptor following a method based on that of Castanon and Spevak, 1994 . The CHO cells were also transfected with cyclic AMP response elements promoting the gene for secreted placental alkaline phosphatase (SPAP) (Wood, 1995). The effect of test compounds was determined by their effects on basal levels of CAMP (A2a) or on forskolin-enhanced cAMP (A1 and A3) as reflected by changes in levels of SPAP. EC50 values for compounds were then determined as a ratio to that of the non-selective agonist N-ethyl carboxamide adenosine (NECA).

[2] = molecular target: T2, human adenosine receptor (adenosine 1) (Homo sapiens, UniProt P30542); test: Agonist activity against adenosine 1 receptor subtype (CHO cells, cAMP response element/SPAP reporter); settings: transfected CHO cells; effect on forskolin-enhanced cAMP reflected by SPAP; ratio to NECA
T2 sequence (P30542 1-326): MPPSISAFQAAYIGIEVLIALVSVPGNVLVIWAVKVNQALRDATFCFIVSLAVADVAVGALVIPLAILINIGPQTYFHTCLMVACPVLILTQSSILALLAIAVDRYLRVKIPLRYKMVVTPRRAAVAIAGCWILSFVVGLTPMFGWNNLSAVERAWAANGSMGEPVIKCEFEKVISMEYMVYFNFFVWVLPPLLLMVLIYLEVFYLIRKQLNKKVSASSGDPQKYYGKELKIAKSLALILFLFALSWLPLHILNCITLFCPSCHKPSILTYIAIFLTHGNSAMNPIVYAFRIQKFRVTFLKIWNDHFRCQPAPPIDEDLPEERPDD
Description: as §1

[3] = molecular target: human adenosine receptor (adenosine 2a) (Homo sapiens, UniProt P29274); test: Agonist activity against adenosine 2a receptor subtype (CHO cells, cAMP response element/SPAP reporter); settings: transfected CHO cells; effect on basal levels of cAMP reflected by SPAP; ratio to NECA
human adenosine receptor (adenosine 2a), sequence (P29274 whole entry): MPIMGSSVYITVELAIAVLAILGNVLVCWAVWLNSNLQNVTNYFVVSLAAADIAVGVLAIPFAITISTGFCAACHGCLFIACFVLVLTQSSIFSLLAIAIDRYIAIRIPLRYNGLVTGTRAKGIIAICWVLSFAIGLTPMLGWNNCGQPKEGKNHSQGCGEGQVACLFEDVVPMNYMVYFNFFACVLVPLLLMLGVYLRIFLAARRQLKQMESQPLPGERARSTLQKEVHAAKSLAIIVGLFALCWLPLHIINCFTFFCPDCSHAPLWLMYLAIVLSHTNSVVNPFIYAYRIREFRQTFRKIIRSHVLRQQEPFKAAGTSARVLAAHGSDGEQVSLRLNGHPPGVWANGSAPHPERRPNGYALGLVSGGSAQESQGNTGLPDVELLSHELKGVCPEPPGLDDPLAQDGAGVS
Description: as §1

Compound	A3; EC50 values as a ratio of that of NECA [1]	A1; EC50 values as a ratio of that of NECA [2]	A2a; EC50 values as a ratio of that of NECA [3]
O=CO.O[C@@H]1[C@H](O)[C@@H](c2nnc[nH]2)O[C@H]1n1cnc2c(NCC(c3ccccc3)c3ccccc3)nc(NCCN3CCCCC3)nc21 [Example 9, (2R,3R,4S,5R)-2-[6-(2,2-Diphenyl-ethylamino)-2-(2-piperidin-1-yl-ethylamino)-purin-9-yl]-5-(4H-[1,2,4]triazol-3-yl)-tetrahydro-furan-3,4-diol formate]	> 472	969.8	8.13
Cn1cnc(CCNc2nc(NCC(c3ccccc3)c3ccccc3)c3ncn([C@@H]4O[C@H](c5nnc[nH]5)[C@@H](O)[C@H]4O)c3n2)c1.O=CO [Example 2, (2R,3R,4S,5R)-2-{6-(2,2-Diphenyl-ethylamino)-2-[2-(1-methyl-1H-imidazol-4-yl)-ethylamino]-purin-9-yl}-5-(4H-[1,2,4]triazol-3-yl)-tetrahydro-furan-3,4-diol formate]	> 430	1003.4	1.08
O=CO.OC[C@H](Cc1ccccc1)Nc1nc(NCC(c2ccccc2)c2ccccc2)c2ncn([C@@H]3O[C@H](c4nnc[nH]4)[C@@H](O)[C@H]3O)c2n1 [Example 8, (2R,3R,4S,5R)-2-[6-(2,2-Diphenyl-ethylamino)-2-(1S-hydroxymethyl-2-phenyl-ethylamino)-purin-9-yl]-5-(4H-[1,2,4]triazol-3-yl)-tetrahydro-furan-3,4-diol formate]	> 326	280.97	26.74
O=CO.O[C@@H]1[C@H](O)[C@@H](c2nnc[nH]2)O[C@H]1n1cnc2c(NCC(c3ccccc3)c3ccccc3)nc(NC3CCCC3)nc21 [Example 6, (2R,3R,4S,5R)-2-[2-Cyclopentylamino-6-(2,2-diphenyl-ethylamino)-purin-9-yl]-5-(4H-[1,2,4]triazol-3-yl)-tetrahydro-furan-3,4-diol formate]	> 305	1627	16.96
CC(C)[C@@H](CO)Nc1nc(NCC(c2ccccc2)c2ccccc2)c2ncn([C@@H]3O[C@H](c4nnc[nH]4)[C@@H](O)[C@H]3O)c2n1.O=CO [Example 4, (2R,3R,4S,5R)-2-[6-(2,2-Diphenyl-ethylamino)-2-(1S-hydroxymethyl-2-methyl-propylamino)-purin-9-yl]-5-(4H-[1,2,4]triazol-3-yl)-tetrahydro-furan-3,4-diol formate]	> 306	670.92	3.79
N=C(N)NCCNc1nc(NCC(c2ccccc2)c2ccccc2)c2ncn([C@@H]3O[C@H](c4nnc[nH]4)[C@@H](O)[C@H]3O)c2n1.O=CO [Example 7, N-{2-[9-[3R,4S-Dihydroxy-5R-(4H-[1,2,4]triazol-3-yl)-tetrahydro-furan-2R-yl]-6-(2,2-diphenyl-ethylamino)-9H-purin-2-ylamino]-ethyl}-guanidine formate]	> 368	2577	19.01
O=CO.O[C@@H]1[C@H](O)[C@@H](c2nnc[nH]2)O[C@H]1n1cnc2c(NCC(c3ccccc3)c3ccccc3)nc(NCCc3ccccn3)nc21 [Example 5, (2R,3R,4S,5R)-2-[6-(2,2-Diphenyl-ethylamino)-2-(2-pyridin-2-yl-ethylamino)-purin-9-yl]-5-(4H-[1,2,4]triazol-3-yl)-tetrahydro-furan-3,4-diol formate]	> 397	3329	19.3
O=CO.O[C@@H]1[C@H](O)[C@@H](c2nnc[nH]2)O[C@H]1n1cnc2c(NCC(c3ccccc3)c3ccccc3)nc(N[C@@H]3CCNC3)nc21 [Example 3, (2R,3R,4S,5R)-2-[6-(2,2-Diphenyl-ethylamino)-2-(pyrrolidin-3R-ylamino)-purin-9-yl]-5-(4H-[1,2,4]triazol-3-yl)-tetrahydro-furan-3,4-diol formate]	> 306	586.92	10.49
N[C@H]1CC[C@H](Nc2nc(NCC(c3ccccc3)c3ccccc3)c3ncn([C@@H]4O[C@H](c5nnc[nH]5)[C@@H](O)[C@H]4O)c3n2)CC1.O=CO [Example 1, (2R,3R,4S,5R)-2-[2-(trans-4-Amino-cyclohexylamino)-6-(2,2-diphenyl-ethylamino)-purin-9-yl]-5-(4H-[1,2,4]triazol-3-yl)-tetrahydro-furan-3,4-diol formate]	> 353	1098	11.37
